Source: patent US20180360705A1, “TOPICAL DELIVERY SYSTEM FOR ACTIVE INREDIENTS” (L'OREAL, priority 2015, published 2018)

Test: Maximum solubility of active ingredient in oils
Type: physicochemical
Conditions: room temperature, atmospheric pressure
Method: The maximum solubility of the active ingredients in the oil phase can be measured in any way which is known in the art. For example, an excess amount of the active ingredient is dissolved in the oil and mixed vigorously at elevated temperature, and then this sample is cooled down to room temperature and maintained for several hours to days. This mixture is centrifuged to separate an oil phase and the concentration of the active ingredient in the separated oil phase is measured using UV spectroscopy.
In the representative examples of the active ingredients of the present invention, the maximum solubilities of phenylethyl resorcinol and 4-(tetrahydro-2H-pyran-4-yl) benzene-1,3-diol in various oils measured at room temperature and under atmospheric pressure are shown below.

## CC(c1ccccc1)c1ccc(O)cc1O (stereo not shown) [Phenylethyl Resorcinol]
Isododecane
  maximum solubility in oil: 0.043%
Isopropyl Lauroyl Sarcosinate
  maximum solubility in oil: 42%
Isopropyl Myristate
  maximum solubility in oil: 36%
Sesamum Indicum (Sesame) Seed Oil
  maximum solubility in oil: 23%
